{"source": "paper PMC3977056", "about": "“Optimum Conditions of Radioligand Receptor Binding Assay of Ligands of Benzodiazepine Receptors” (Iranian Journal of Pharmaceutical Research : IJPR, 2014)", "key": {"[1]": {"molecular_target": "T1, GABAA receptor, benzodiazepine (BZD) binding site (rat cortical membrane)", "T1 construct": "native receptor in cortical membrane of male Sprague-Dawley rats", "experiment": "[3H]-flumazenil competition binding; […] used for nonspecific binding"}, "[2]": {"molecular_target": "T1, GABAA receptor, benzodiazepine (BZD) binding site (rat cortical membrane)", "experiment": "radioligand saturation binding, centrifugation separation"}, "[3]": {"molecular_target": "T1, GABAA receptor, benzodiazepine (BZD) binding site (rat cortical membrane)", "experiment": "[3H]-flumazenil competition binding"}}}
{"smiles": "CN1C(=O)CN=C(c2ccccc2)c2cc(Cl)ccc21", "note": "[diazepam]", "values": [{"measurement": "Ki", "setting": "[1]", "value": 1.53, "unit": "nM"}]}
{"smiles": "CCOC(=O)c1ncn2c1CN(C)C(=O)c1cc(F)ccc1-2", "note": "[[3H]-flumazenil]", "values": [{"measurement": "Kd", "setting": "[2]", "value": "1.35 ± 0.316", "unit": "nM"}]}
{"smiles": "Cc1cc(=O)n2nc(-c3ccccc3)oc2n1", "note": "[compound A, 2-phenyl-5-oxo-7-methyl-1,3,4-oxadiazolo[a,2,3]-pyrimidine]", "values": [{"measurement": "Ki", "setting": "[3]", "value": 1.9, "unit": "nM"}]}
